≈ marks a conversion by molar mass, not a printed value.
Tests used:
Assay type in all cases: functional
Penicillium chrysogenum [1] = test: Antifungal activity against Penicillium chrysogenum MTCC 161 at 250 ug/ml after 48 hr by cup-plate method; settings: MTCC 161, 48 h, read-out: DIZ
Aspergillus niger [2] = test: Antifungal activity against Aspergillus niger MTCC 2546 at 1000 ug/ml after 48 hr by cup-plate method; settings: MTCC 2546, 48 h, read-out: DIZ
Pseudomonas aeruginosa [3] = test: Antibacterial activity against Pseudomonas aeruginosa MTCC 424 at 750 ug/ml after 48 hr by cup-plate method; settings: MTCC 424, 48 h, read-out: DIZ
Bacillus pumilus [4] = test: Antibacterial activity against Bacillus pumilus MTCC 1456 at 250 ug/ml after 48 hr by cup-plate method; settings: MTCC 1456, 48 h, read-out: DIZ
Micrococcus luteus [5] = test: Antibacterial activity against Micrococcus luteus MTCC 1538 at 1000 ug/ml after 48 hr by cup-plate method; settings: MTCC 1538, 48 h, read-out: DIZ
Bacillus pumilus [6] = test: Antibacterial activity against Bacillus pumilus MTCC 1456 after 24 to 48 hr by tube dilution method
Pseudomonas fluorescens [7] = test: Antibacterial activity against Pseudomonas fluorescens MTCC 2421 at 750 ug/ml after 48 hr by cup-plate method; settings: MTCC 2421, 48 h, read-out: DIZ
Pseudomonas fluorescens [8] = test: Antibacterial activity against Pseudomonas fluorescens MTCC 2421 at 1000 ug/ml after 48 hr by cup-plate method; settings: MTCC 2421, 48 h, read-out: DIZ
Bacillus subtilis [9] = test: Antibacterial activity against Bacillus subtilis MTCC 441 at 1000 ug/ml after 48 hr by cup-plate method; settings: MTCC 441, 48 h, read-out: DIZ
Penicillium chrysogenum [10] = test: Antifungal activity against Penicillium chrysogenum MTCC 161 at 500 ug/ml after 48 hr by cup-plate method; settings: MTCC 161, 48 h, read-out: DIZ
Pseudomonas fluorescens [11] = test: Antibacterial activity against Pseudomonas fluorescens MTCC 2421 at 100 ug/ml after 48 hr by cup-plate method; settings: MTCC 2421, 48 h, read-out: DIZ
Escherichia coli [12] = test: Antibacterial activity against Escherichia coli MTCC 1573 at 100 ug/ml after 48 hr by cup-plate method; settings: MTCC 1573, 48 h, read-out: DIZ
Bacillus subtilis [13] = test: Antibacterial activity against Bacillus subtilis MTCC 441 at 500 ug/ml after 48 hr by cup-plate method; settings: MTCC 441, 48 h, read-out: DIZ
Pseudomonas fluorescens [14] = test: Antibacterial activity against Pseudomonas fluorescens MTCC 2421 at 1250 ug/ml after 48 hr by cup-plate method; settings: MTCC 2421, 48 h, read-out: DIZ
Micrococcus luteus [15] = test: Antibacterial activity against Micrococcus luteus MTCC 1538 at 250 ug/ml after 48 hr by cup-plate method; settings: MTCC 1538, 48 h, read-out: DIZ
Pseudomonas aeruginosa [16] = test: Antibacterial activity against Pseudomonas aeruginosa MTCC 424 at 500 ug/ml after 48 hr by cup-plate method; settings: MTCC 424, 48 h, read-out: DIZ
Bacillus pumilus [17] = test: Antibacterial activity against Bacillus pumilus MTCC 1456 at 500 ug/ml after 48 hr by cup-plate method; settings: MTCC 1456, 48 h, read-out: DIZ
Micrococcus luteus [18] = test: Antibacterial activity against Micrococcus luteus MTCC 1538 at 1250 ug/ml after 48 hr by cup-plate method; settings: MTCC 1538, 48 h, read-out: DIZ
Staphylococcus aureus [19] = test: Antibacterial activity against Staphylococcus aureus MTCC 1430 at 1000 ug/ml after 48 hr by cup-plate method; settings: MTCC 1430, 48 h, read-out: DIZ
Pseudomonas aeruginosa [20] = test: Antibacterial activity against Pseudomonas aeruginosa MTCC 424 after 24 to 48 hr by tube dilution method
Pseudomonas aeruginosa [21] = test: Antibacterial activity against Pseudomonas aeruginosa MTCC 424 at 100 ug/ml after 48 hr by cup-plate method; settings: MTCC 424, 48 h, read-out: DIZ
Pseudomonas fluorescens [22] = test: Antibacterial activity against Pseudomonas fluorescens MTCC 2421 at 500 ug/ml after 48 hr by cup-plate method; settings: MTCC 2421, 48 h, read-out: DIZ
Escherichia coli [23] = test: Antibacterial activity against Escherichia coli MTCC 1573 at 1250 ug/ml after 48 hr by cup-plate method; settings: MTCC 1573, 48 h, read-out: DIZ
Escherichia coli [24] = test: Antibacterial activity against Escherichia coli MTCC 1573 at 1000 ug/ml after 48 hr by cup-plate method; settings: MTCC 1573, 48 h, read-out: DIZ
Bacillus pumilus [25] = test: Antibacterial activity against Bacillus pumilus MTCC 1456 at 1250 ug/ml after 48 hr by cup-plate method; settings: MTCC 1456, 48 h, read-out: DIZ
Escherichia coli [26] = test: Antibacterial activity against Escherichia coli MTCC 1573 at 750 ug/ml after 48 hr by cup-plate method; settings: MTCC 1573, 48 h, read-out: DIZ
Penicillium chrysogenum [27] = test: Antifungal activity against Penicillium chrysogenum MTCC 161 at 1250 ug/ml after 48 hr by cup-plate method; settings: MTCC 161, 48 h, read-out: DIZ
Aspergillus niger [28] = test: Antifungal activity against Aspergillus niger MTCC 2546 at 500 ug/ml after 48 hr by cup-plate method; settings: MTCC 2546, 48 h, read-out: DIZ
Penicillium chrysogenum [29] = test: Antifungal activity against Penicillium chrysogenum MTCC 161 at 100 ug/ml after 48 hr by cup-plate method; settings: MTCC 161, 48 h, read-out: DIZ
Bacillus subtilis [30] = test: Antibacterial activity against Bacillus subtilis MTCC 441 at 1250 ug/ml after 48 hr by cup-plate method; settings: MTCC 441, 48 h, read-out: DIZ
Bacillus subtilis [31] = test: Antibacterial activity against Bacillus subtilis MTCC 441 at 100 ug/ml after 48 hr by cup-plate method; settings: MTCC 441, 48 h, read-out: DIZ
Escherichia coli [32] = test: Antibacterial activity against Escherichia coli MTCC 1573 after 24 to 48 hr by tube dilution method
Penicillium chrysogenum [33] = test: Antifungal activity against Penicillium chrysogenum MTCC 161 at 1000 ug/ml after 48 hr by cup-plate method; settings: MTCC 161, 48 h, read-out: DIZ
Pseudomonas aeruginosa [34] = test: Antibacterial activity against Pseudomonas aeruginosa MTCC 424 at 1250 ug/ml after 48 hr by cup-plate method; settings: MTCC 424, 48 h, read-out: DIZ
Staphylococcus aureus [35] = test: Antibacterial activity against Staphylococcus aureus MTCC 1430 at 250 ug/ml after 48 hr by cup-plate method; settings: MTCC 1430, 48 h, read-out: DIZ
Aspergillus niger [36] = test: Antifungal activity against Aspergillus niger MTCC 2546 at 1250 ug/ml after 48 hr by cup-plate method; settings: MTCC 2546, 48 h, read-out: DIZ
Micrococcus luteus [37] = test: Antibacterial activity against Micrococcus luteus MTCC 1538 at 500 ug/ml after 48 hr by cup-plate method; settings: MTCC 1538, 48 h, read-out: DIZ
Pseudomonas aeruginosa [38] = test: Antibacterial activity against Pseudomonas aeruginosa MTCC 424 at 1000 ug/ml after 48 hr by cup-plate method; settings: MTCC 424, 48 h, read-out: DIZ
Bacillus subtilis [39] = test: Antibacterial activity against Bacillus subtilis MTCC 441 at 750 ug/ml after 48 hr by cup-plate method; settings: MTCC 441, 48 h, read-out: DIZ
Staphylococcus aureus [40] = test: Antibacterial activity against Staphylococcus aureus MTCC 1430 at 750 ug/ml after 48 hr by cup-plate method; settings: MTCC 1430, 48 h, read-out: DIZ
Penicillium chrysogenum [41] = test: Antifungal activity against Penicillium chrysogenum MTCC 161 at 750 ug/ml after 48 hr by cup-plate method; settings: MTCC 161, 48 h, read-out: DIZ
Micrococcus luteus [42] = test: Antibacterial activity against Micrococcus luteus MTCC 1538 at 750 ug/ml after 48 hr by cup-plate method; settings: MTCC 1538, 48 h, read-out: DIZ
Staphylococcus aureus [43] = test: Antibacterial activity against Staphylococcus aureus MTCC 1430 after 24 to 48 hr by tube dilution method
Staphylococcus aureus [44] = test: Antibacterial activity against Staphylococcus aureus MTCC 1430 at 500 ug/ml after 48 hr by cup-plate method; settings: MTCC 1430, 48 h, read-out: DIZ

SMILES: O=[N+]([O-])c1ccc(C2CC(c3cccc4ccccc34)=NN2c2ccccc2)cc1 (centres undefined)
- zone of inhibition at 250 µg/mL (Penicillium chrysogenum [1]): 12 mm
- zone of inhibition at 1000 µg/mL (Aspergillus niger [2]): 21 mm
- zone of inhibition at 750 µg/mL (Pseudomonas aeruginosa [3]): 14 mm
- zone of inhibition at 250 µg/mL (Bacillus pumilus [4]): 9 mm
- zone of inhibition at 1000 µg/mL (Micrococcus luteus [5]): 13 mm
- MIC (Bacillus pumilus [6]): 150 µg/mL (≈ 381 µM)
- zone of inhibition at 750 µg/mL (Pseudomonas fluorescens [7]): 13 mm
- zone of inhibition at 1000 µg/mL (Pseudomonas fluorescens [8]): 16 mm
- zone of inhibition at 1000 µg/mL (Bacillus subtilis [9]): 19 mm
- zone of inhibition at 500 µg/mL (Penicillium chrysogenum [10]): 13 mm
- zone of inhibition at 100 µg/mL (Pseudomonas fluorescens [11]): 8 mm
- zone of inhibition at 100 µg/mL (Escherichia coli [12]): 9 mm
- zone of inhibition at 500 µg/mL (Bacillus subtilis [13]): 15 mm
- zone of inhibition at 1250 µg/mL (Pseudomonas fluorescens [14]): 19 mm
- zone of inhibition at 250 µg/mL (Micrococcus luteus [15]): 8 mm
- zone of inhibition at 500 µg/mL (Pseudomonas aeruginosa [16]): 12 mm
- zone of inhibition at 500 µg/mL (Bacillus pumilus [17]): 10 mm
- zone of inhibition at 1250 µg/mL (Micrococcus luteus [18]): 17 mm
- zone of inhibition at 1000 µg/mL (Staphylococcus aureus [19]): 15 mm
- MIC (Pseudomonas aeruginosa [20]): 50 µg/mL (≈ 127 µM)
- zone of inhibition at 100 µg/mL (Pseudomonas aeruginosa [21]): 9 mm
- zone of inhibition at 500 µg/mL (Pseudomonas fluorescens [22]): 10 mm
- zone of inhibition at 1250 µg/mL (Escherichia coli [23]): 18 mm
- zone of inhibition at 1000 µg/mL (Escherichia coli [24]): 15 mm
- zone of inhibition at 1250 µg/mL (Bacillus pumilus [25]): 18 mm
- zone of inhibition at 750 µg/mL (Escherichia coli [26]): 13 mm
- zone of inhibition at 1250 µg/mL (Penicillium chrysogenum [27]): 18 mm
- zone of inhibition at 500 µg/mL (Aspergillus niger [28]): 13 mm
- zone of inhibition at 100 µg/mL (Penicillium chrysogenum [29]): 10 mm
- zone of inhibition at 1250 µg/mL (Bacillus subtilis [30]): 21 mm
- zone of inhibition at 100 µg/mL (Bacillus subtilis [31]): 12 mm
- MIC (Escherichia coli [32]): 50 µg/mL (≈ 127 µM)
- zone of inhibition at 1000 µg/mL (Penicillium chrysogenum [33]): 16 mm
- zone of inhibition at 1250 µg/mL (Pseudomonas aeruginosa [34]): 20 mm
- zone of inhibition at 250 µg/mL (Staphylococcus aureus [35]): 10 mm
- zone of inhibition at 1250 µg/mL (Aspergillus niger [36]): 23 mm
- zone of inhibition at 500 µg/mL (Micrococcus luteus [37]): 9 mm
- zone of inhibition at 1000 µg/mL (Pseudomonas aeruginosa [38]): 17 mm
- zone of inhibition at 750 µg/mL (Bacillus subtilis [39]): 17 mm
- zone of inhibition at 750 µg/mL (Staphylococcus aureus [40]): 12 mm
- zone of inhibition at 750 µg/mL (Penicillium chrysogenum [41]): 15 mm
- zone of inhibition at 750 µg/mL (Micrococcus luteus [42]): 11 mm
- MIC (Staphylococcus aureus [43]): 150 µg/mL (≈ 381 µM)
- zone of inhibition at 500 µg/mL (Staphylococcus aureus [44]): 11 mm

— ChEMBL document CHEMBL3044945, “Synthesis of 1,3,5-trisubstituted pyrazoline nucleus containing compounds and screening for antimicrobial activity” (2012)
